Measurements from article PMC5843811, “^44Sc for labeling of DOTA- and NODAGA-functionalized peptides: preclinical in vitro and in vivo investigations” (EJNMMI Radiopharmacy and Chemistry, 2016).
Like-named read-outs stand apart in the source and are kept apart here.

Columns and labels:
[1] = Metal challenge stability in saline with 10 mM Cu^2+ (TLC); assay type: physicochemical; settings: 0.9 % NaCl with 10 mM Cu^2+, 37 °C, after two half-lives, 80–100 MBq in 800 μL
Method: Aliquots were taken from the prepared solutions at different time points over at least four half-lives, respectively, of ^44Sc and ^68Ga and analyzed by TLC (TLC was used, as the high metal concentrations used in this study may impair the long-term performance of HPLC columns). […] The TLC plates (Silica-gel 60, Merck) were developed using 0.1 M sodium citrate (pH 4.7) as mobile phase. The quantitative distribution of radioactivity was determined with an autoradiography system (Cyclone Plus, Perkin Elmer) and its associated software (Optiquant, version 5.0).
The influence of high metal cation concentration on the stability of ^44Sc and ^68Ga labeled peptides was monitored in solutions containing 0.01 M Fe^3+ or Cu^2+. An aqueous metal cation solution (16 μL of a 0.5 M Fe^3+/Cu^2+ solution) was added to 80–100 MBq of ^44Sc or ^68Ga labeling solution and diluted with 0.9 % NaCl solution to a volume of 800 μL. The incubation conditions, time points of retrieving samples and analysis by TLC were kept the same, as described above.

AR42J tumor-bearing mice [2] = experiment: PET/CT imaging of AR42J tumor-bearing mice; settings: 3 h after i.v. injection of ~10 MBq (~1 nmol; ^44Sc-NODAGA-NOC ~3 nmol), one or two mice
Method: A bench-top preclinical PET scanner (G8, Sofie Biosciences, California, U.S.A. and Perkin Elmer, Massachusetts, U.S.A.) was employed for the PET scans of the tumor-bearing mice. The energy window was set to 150–650 keV. Mice were injected intravenously with ^44Sc- or ^68Ga-labeled peptides (~10 MBq, ~1 nmol per mouse) in a volume of 100–200 μL. The PET scans were performed 3 h and 5 h after injection of the ^44Sc-labeled peptides and 3 h after injection of the ^68Ga-labeled peptides, using G8 acquisition software (version 2.0.0.10). All static PET scans lasted for 20 min. During the acquisition the mice were anesthetized by inhalation of a mixture of isoflurane and oxygen. The images were reconstructed with maximum-likelihood expectation maximization (MLEM). Gauss post-reconstruction filtering was performed using VivoQuant post-processing software (version 2.10, inviCRO Imaging Services and Software, Boston, U.S.A.).

[3] = Biodistribution in AR42J tumor-bearing mice; settings: female, CD-1 nude (athymic nude), mouse, AR42J tumor / liver, iv, total radioactivity, Tumor-to-liver ratio, i.v. ~5 MBq (~1 nmol), 2 h p.i., mean ± SD, n=3
Method: (§1) Female athymic nude mice (CD-1 nude), age 5–6 weeks, were obtained from Charles River Laboratories, Sulzfeld, Germany. U87MG cells and AR42J-cells were suspended in PBS (5 × 10^6 cells in 100 μL) and subcutaneously inoculated on each shoulder. Two to three weeks later, when the tumor reached a size of about 300–500 mm^3, the mice were used for the in vivo studies.
(§2) Biodistribution studies were performed with U87MG tumor and AR42J tumor-bearing mice 2 weeks after tumor cell inoculation. ^44Sc- and ^68Ga-labeled peptides (~5 MBq, ~1 nmol per mouse) were intravenously injected in a volume of 100–200 μL. Mice were sacrificed at 30 min, 2 h and 5 h after injection (p.i.) of the ^44Sc-labeled peptides. Mice which were injected with ^68Ga-labeled peptides were sacrificed at 30 min and 2 h p.i. Selected tissues and organs were collected, weighed, and counted for radioactivity using a γ-counter (Wallac Wizard 1480, Perkin Elmer). The results were listed as a percentage of the injected activity per gram of tissue mass (% IA/g), using counts of a defined volume of the original injection solution counted at the same time. The data were analyzed for significance using a two-way ANOVA test (Graph Pad Prism 6 software, version 6.05). A p-value of < 0.05 was considered statistically significant.

[4] = Biodistribution in U87MG tumor-bearing mice; assay type: in vivo; settings: female, CD-1 nude (athymic nude), mouse, U87MG tumor, iv, total radioactivity, i.v. ~5 MBq (~1 nmol), 2 h p.i., mean ± SD, n=3, read-out: Biodistribution, U87MG Tumor
Method: as §1, §2

AR42J tumor-bearing mice [5] = settings: female, CD-1 nude (athymic nude), mouse, in vivo, iv, 5 MBq per mouse
Method: as §1, §2

in vivo = settings: female, CD-1 nude (athymic nude), mouse, iv, 5 MBq per mouse, total radioactivity, Biodistribution
Method: as §1, §2

N=C(N)NCCC[C@@H]1NC(=O)[C@H](CCCCNC(=O)CN2CCN(CC(=O)O)CCN(CC(=O)O)CCN(CC(=O)O)CC2)NC(=O)[C@@H](Cc2ccccc2)NC(=O)[C@H](CC(=O)O)NC(=O)CNC1=O [^68Ga-DOTA-RGD, metal not drawn]
Amount of intact compound in presence of 10 mM Cu^2+ [1]: 10%

C[C@@H](O)[C@@H]1NC(=O)[C@H](CCCCN)NC(=O)[C@@H](Cc2c[nH]c3ccccc23)NC(=O)[C@H](Cc2cccc3ccccc23)NC(=O)[C@@H](NC(=O)[C@@H](Cc2ccccc2)NC(=O)CCC(C(=O)O)N2CCN(CC(=O)O)CCN(CC(=O)O)CC2)CSSC[C@@H](C(=O)N[C@H](CO)[C@@H](C)O)NC1=O (stereo partly shown) [^68Ga-NODAGA-NOC, metal not drawn]
PET/CT distribution of radioactivity (in words) (AR42J tumor-bearing mice [2]): accumulated solely in tumors and kidneys | tissue to tissue ratio at 2 h [3]: 5.88 ± 0.68

N=C(N)NCCC[C@@H]1NC(=O)[C@H](CCCCNC(=O)CCC(C(=O)O)N2CCN(CC(=O)O)CCN(CC(=O)O)CC2)NC(=O)[C@@H](Cc2ccc(O)cc2)NC(=O)[C@H](CC(=O)O)NC(=O)CNC1=O (stereo partly shown) [^68Ga-NODAGA-RGD, metal not drawn]
tissue uptake at 2 h [4]: 3.13 ± 0.27 %ID/g

C[C@@H](O)[C@@H]1NC(=O)[C@H](CCCCN)NC(=O)[C@@H](Cc2c[nH]c3ccccc23)NC(=O)[C@H](Cc2cccc3ccccc23)NC(=O)[C@@H](NC(=O)[C@@H](Cc2ccccc2)NC(=O)CN2CCN(CC(=O)O)CCN(CC(=O)O)CCN(CC(=O)O)CC2)CSSC[C@@H](C(=O)N[C@H](CO)[C@@H](C)O)NC1=O [^68Ga-DOTA-NOC, metal not drawn]
Biodistribution, Intestines (AR42J tumor-bearing mice [5]; 0.5 h): 0.99 ± 0.13 % IA/g | Biodistribution, Pancreas (AR42J tumor-bearing mice [5]; 0.5 h): 2.48 ± 0.11 % IA/g | Biodistribution, Stomach (AR42J tumor-bearing mice [5]; 0.5 h): 2.27 ± 0.21 % IA/g | Biodistribution, Pancreas (AR42J tumor-bearing mice [5]; 2 h): 1.70 ± 0.22 % IA/g | Biodistribution, Stomach (AR42J tumor-bearing mice [5]; 2 h): 1.68 ± 0.27 % IA/g

C[C@@H](O)[C@@H]1NC(=O)[C@H](CCCCN)NC(=O)[C@@H](Cc2c[nH]c3ccccc23)NC(=O)[C@H](Cc2cccc3ccccc23)NC(=O)[C@@H](NC(=O)[C@@H](Cc2ccccc2)NC(=O)CN2CCN(CC(=O)O)CCN(CC(=O)O)CCN(CC(=O)O)CC2)CSSC[C@@H](C(=O)N[C@H](CO)[C@@H](C)O)NC1=O [^44Sc-DOTA-NOC, metal not drawn]
Biodistribution, Pancreas (AR42J tumor-bearing mice [5]; 2 h): 0.71 ± 0.01 % IA/g | Biodistribution, Stomach (AR42J tumor-bearing mice [5]; 2 h): 0.71 ± 0.05 % IA/g | tissue uptake at 0.5 h (in vivo; Intestines): 1.02 ± 0.37 %ID/g | tissue uptake at 0.5 h (in vivo; Pancreas): 1.29 ± 0.28 %ID/g | tissue uptake at 5 h (in vivo; Pancreas): 0.57 ± 0.07 %ID/g | tissue uptake at 0.5 h (in vivo; Stomach): 1.38 ± 0.29 %ID/g | tissue uptake at 5 h (in vivo; Stomach): 0.52 ± 0.09 %ID/g
